Results on nine compounds are retold here after PubChem BioAssay AID1601.

Inconclusive results are not listed. Where a SMILES comes first, the peptide text is derived from it.

This assay has as its system mutant SOD1 cell death rescue, 1 uM. The experiment in a line: suppressors of mutant SOD1 cell death (AID 1601).

By EC50 is commonly meant the concentration giving half of the maximal effect.

For the compound `CC[C@@H](CO)NCCN[C@@H](CC)CO`, the EC50 was 2900 nM.
For the compound `CC(C)NCC(O)c1ccc(O)c(O)c1` (centres undefined), the EC50 was 1000 nM.
The value for `CC[C@H]1OC(=O)[C@H](C)[C@@H](O[C@H]2C[C@@](C)(OC)[C@@H](O)[C@H](C)O2)[C@H](C)[C@@H](O[C@@H]2O[C@H](C)C[C@H](N(C)C)[C@H]2O)[C@](C)(O)C[C@@H](C)CN(C)[C@H](C)[C@@H](O)[C@]1(C)O` was 900 nM; that for `CCCC(CCC)C(=O)O` was 700 nM.
The value for `NCCCCC(N)C(=O)NC(Cc1c[nH]c2ccccc12)C(=O)NC(CCCCN)C(=O)O` (stereo not drawn) (H-Lys-Trp-Lys-OH; configuration not given here) was 8600 nM; that for `CC(=O)NS(=O)(=O)c1ccc(N)cc1` was 2100 nM.
The result for `CC(C)COCC(CN(Cc1ccccc1)c1ccccc1)N1CCCC1` (centres undefined) reads 1000 nM; that for `CC(C)=CCC/C(C)=C/CO`, 1200 nM; that for `Cc1cc(C(C)(C)CC(C)(C)C)ccc1OCCOCC[N+](C)(C)Cc1ccccc1`, 100 nM.
